# Read-outs that look alike come from different tables or passages of the source.
# Experiments:
# patients with AML [1] = details: cited from earlier work
# [2] = human, in vivo
# [3] = test system: elderly patients with newly diagnosed AML; assay: Phase I dose escalation: dose-limiting toxicities and maximum tolerated dose; assay type: in vivo, human
# patients with AML [4] = details: cited from earlier work; remark: listed apart in the source
# [5] = test system: elderly patients with newly diagnosed AML
# [6] = Plasma pharmacokinetics of barasertib, barasertib-hQPA and LDAC; details: for Css, barasertib: geometric mean (CV%)
# [7] = test system: elderly patients with newly diagnosed AML; assay: AML response assessed by investigators; assay type: in vivo, human
# [8] = Total, barasertib 800-1200 mg + LDAC 400 mg, n=22
# [9] = all patients, barasertib + LDAC, n=22
# [10] = barasertib 800 mg + LDAC 400 mg, n=6
# [11] = barasertib 1000 mg + LDAC 400 mg, n=13
# [12] = barasertib 1200 mg + LDAC 400 mg, n=3
# [13] = combination treatment barasertib + LDAC
# [14] = overall, barasertib + LDAC, n=22
smiles,measurement,setting,value
"Nc1ccn([C@@H]2O[C@H](CO)[C@@H](O)[C@@H]2O)c(=O)n1 [LDAC, cytosine arabinoside]",Infection frequency,patients with AML [1]; LDAC monotherapy,45%
same,Rates of response,patients with AML [1]; LDAC or decitabine alone,~20%
same,"AUC0–8 ratio, Day 7:Day10, LDAC",[2]; 800 mg,1.1 (14.6) ng.h/mL
same,"AUC0–8 ratio, Day 7:Day10, LDAC",[2]; 1000 mg,1.2 (24.2) ng.h/mL
same,"AUC0–8 ratio, Day 7:Day10, LDAC",[2]; 1200 mg,0.79 (105.7) ng.h/mL
same,Time of peak plasma concentrations (Cmax) post administration,"[2]; sc, 20 mg",0.25 to 1 h
same,"t½, monophasic elimination","[2]; sc, 20 mg",1 to 2 h
CCN(CCCOc1ccc2c(Nc3cc(CC(=O)Nc4cccc(F)c4)n[nH]3)ncnc2c1)CCOP(=O)(O)O [Barasertib],Tolerability of dose level,[3]; barasertib 1200 mg + LDAC,non-tolerated
same,DLTs reported,[3]; in vivo,No DLTs
same,Incidence of febrile neutropenia,patients with AML [4]; barasertib monotherapy Phase I study,47%
same,Lowest dose associated with clinical activity,patients with AML [4]; barasertib,400 mg
same,"Grade ≥3 febrile neutropenia, patients",[5]; MTD of barasertib 1000 mg + LDAC,69%
same,"Alopecia, AE (any cause; all grades)",[5]; [8],6 (27) n (%)
same,"Anemia, grade ≥3 adverse event",[5]; [8],2 (9) n (%)
same,Any AE (any cause; all grades),[5]; [8],22 (100) n (%)
same,Any grade ≥3 AE,[5]; [8],21 (96) n (%)
same,"Confusional state, AE (any cause; all grades)",[5]; [8],5 (23) n (%)
same,"Constipation, AE (any cause; all grades)",[5]; [8],6 (27) n (%)
same,"Cough, AE (any cause; all grades)",[5]; [8],4 (18) n (%)
same,"Decreased appetite, AE (any cause; all grades)",[5]; [8],4 (18) n (%)
same,"Diarrhea, AE (any cause; all grades)",[5]; [8],10 (46) n (%)
same,"Diarrhea, grade ≥3 adverse event",[5]; [8],2 (9) n (%)
same,"Febrile neutropenia, AE (any cause; all grades)",[5]; [8],13 (59) n (%)
same,"Febrile neutropenia, grade ≥3 adverse event",[5]; [8],13 (59) n (%)
same,"Headache, AE (any cause; all grades)",[5]; [8],5 (23) n (%)
same,"Hemorrhoids, AE (any cause; all grades)",[5]; [8],4 (18) n (%)
same,"Hypertension, AE (any cause; all grades)",[5]; [8],4 (18) n (%)
same,"Insomnia, AE (any cause; all grades)",[5]; [8],4 (18) n (%)
same,"Musculoskeletal pain, AE (any cause; all grades)",[5]; [8],4 (18) n (%)
same,"Nausea, AE (any cause; all grades)",[5]; [8],11 (50) n (%)
same,"Neutropenia, AE (any cause; all grades)",[5]; [8],4 (18) n (%)
same,"Neutropenia, grade ≥3 adverse event",[5]; [8],4 (18) n (%)
same,"Oropharyngeal pain, AE (any cause; all grades)",[5]; [8],5 (23) n (%)
same,"Peripheral edema, AE (any cause; all grades)",[5]; [8],9 (41) n (%)
same,"Petechiae, AE (any cause; all grades)",[5]; [8],6 (27) n (%)
same,"Pneumonia, AE (any cause; all grades)",[5]; [8],6 (27) n (%)
same,"Pneumonia, grade ≥3 adverse event",[5]; [8],3 (14) n (%)
same,"Pyrexia, AE (any cause; all grades)",[5]; [8],5 (23) n (%)
same,"Rash, AE (any cause; all grades)",[5]; [8],4 (18) n (%)
same,"Stomatitis, AE (any cause; all grades)",[5]; [8],9 (41) n (%)
same,"Peripheral edema, patients",[5]; [9],41%
same,"Stomatitis, patients",[5]; [9],41%
same,"Alopecia, AE (any cause; all grades)",[5]; [10],2 n
same,"Anemia, grade ≥3 adverse event",[5]; [10],2 n
same,Any AE (any cause; all grades),[5]; [10],6 n
same,Any grade ≥3 AE,[5]; [10],6 n
same,"Confusional state, AE (any cause; all grades)",[5]; [10],2 n
same,"Constipation, AE (any cause; all grades)",[5]; [10],3 n
same,"Cough, AE (any cause; all grades)",[5]; [10],1 n
same,"Decreased appetite, AE (any cause; all grades)",[5]; [10],2 n
same,"Diarrhea, AE (any cause; all grades)",[5]; [10],5 n
same,"Diarrhea, grade ≥3 adverse event",[5]; [10],1 n
same,"Febrile neutropenia, AE (any cause; all grades)",[5]; [10],4 n
same,"Febrile neutropenia, grade ≥3 adverse event",[5]; [10],4 n
same,"Headache, AE (any cause; all grades)",[5]; [10],3 n
same,"Hemorrhoids, AE (any cause; all grades)",[5]; [10],1 n
same,"Hypertension, AE (any cause; all grades)",[5]; [10],0 n
same,"Insomnia, AE (any cause; all grades)",[5]; [10],0 n
same,"Musculoskeletal pain, AE (any cause; all grades)",[5]; [10],2 n
same,"Nausea, AE (any cause; all grades)",[5]; [10],4 n
same,"Neutropenia, AE (any cause; all grades)",[5]; [10],1 n
same,"Neutropenia, grade ≥3 adverse event",[5]; [10],1 n
same,"Oropharyngeal pain, AE (any cause; all grades)",[5]; [10],1 n
same,"Peripheral edema, AE (any cause; all grades)",[5]; [10],2 n
same,"Petechiae, AE (any cause; all grades)",[5]; [10],3 n
same,"Pneumonia, AE (any cause; all grades)",[5]; [10],3 n
same,"Pneumonia, grade ≥3 adverse event",[5]; [10],0 n
same,"Pyrexia, AE (any cause; all grades)",[5]; [10],3 n
same,"Rash, AE (any cause; all grades)",[5]; [10],2 n
same,"Stomatitis, AE (any cause; all grades)",[5]; [10],3 n
same,"Stomatitis, grade ≥3 adverse event",[5]; [10],0 n
same,"Thrombocytopenia, grade ≥3 adverse event (grade 4)",[5]; [10],1 n
same,"Vomiting, AE (any cause; all grades)",[5]; [10],3 n
same,"Alopecia, AE (any cause; all grades)",[5]; [11],4 n
same,"Anemia, grade ≥3 adverse event",[5]; [11],0 n
same,Any AE (any cause; all grades),[5]; [11],13 n
same,Any grade ≥3 AE,[5]; [11],12 n
same,"Confusional state, AE (any cause; all grades)",[5]; [11],3 n
same,"Constipation, AE (any cause; all grades)",[5]; [11],3 n
same,"Cough, AE (any cause; all grades)",[5]; [11],3 n
same,"Decreased appetite, AE (any cause; all grades)",[5]; [11],1 n
same,"Diarrhea, AE (any cause; all grades)",[5]; [11],5 n
same,"Diarrhea, grade ≥3 adverse event",[5]; [11],1 n
same,"Febrile neutropenia, AE (any cause; all grades)",[5]; [11],9 n
same,"Febrile neutropenia, grade ≥3 adverse event",[5]; [11],9 n
same,"Headache, AE (any cause; all grades)",[5]; [11],2 n
same,"Hemorrhoids, AE (any cause; all grades)",[5]; [11],3 n
same,"Hypertension, AE (any cause; all grades)",[5]; [11],3 n
same,"Insomnia, AE (any cause; all grades)",[5]; [11],3 n
same,"Musculoskeletal pain, AE (any cause; all grades)",[5]; [11],2 n
same,"Nausea, AE (any cause; all grades)",[5]; [11],6 n
same,"Neutropenia, AE (any cause; all grades)",[5]; [11],2 n
same,"Neutropenia, grade ≥3 adverse event",[5]; [11],2 n
same,"Oropharyngeal pain, AE (any cause; all grades)",[5]; [11],4 n
same,"Peripheral edema, AE (any cause; all grades)",[5]; [11],7 n
same,"Petechiae, AE (any cause; all grades)",[5]; [11],2 n
same,"Pneumonia, AE (any cause; all grades)",[5]; [11],3 n
same,"Pneumonia, grade ≥3 adverse event",[5]; [11],3 n
same,"Pyrexia, AE (any cause; all grades)",[5]; [11],2 n
same,"Rash, AE (any cause; all grades)",[5]; [11],2 n
same,"Stomatitis, AE (any cause; all grades)",[5]; [11],4 n
same,"Stomatitis, grade ≥3 adverse event",[5]; [11],2 n
same,"Thrombocytopenia, grade ≥3 adverse event (grade 4)",[5]; [11],1 n
same,"Vomiting, AE (any cause; all grades)",[5]; [11],2 n
same,"Alopecia, AE (any cause; all grades)",[5]; [12],0 n
same,"Anemia, grade ≥3 adverse event",[5]; [12],0 n
same,Any AE (any cause; all grades),[5]; [12],3 n
same,Any grade ≥3 AE,[5]; [12],3 n
same,"Confusional state, AE (any cause; all grades)",[5]; [12],0 n
same,"Constipation, AE (any cause; all grades)",[5]; [12],0 n
same,"Cough, AE (any cause; all grades)",[5]; [12],0 n
same,"Decreased appetite, AE (any cause; all grades)",[5]; [12],1 n
same,"Diarrhea, AE (any cause; all grades)",[5]; [12],0 n
same,"Diarrhea, grade ≥3 adverse event",[5]; [12],0 n
same,"Febrile neutropenia, AE (any cause; all grades)",[5]; [12],0 n
same,"Febrile neutropenia, grade ≥3 adverse event",[5]; [12],0 n
same,"Headache, AE (any cause; all grades)",[5]; [12],0 n
same,"Hemorrhoids, AE (any cause; all grades)",[5]; [12],0 n
same,"Hypertension, AE (any cause; all grades)",[5]; [12],1 n
same,"Insomnia, AE (any cause; all grades)",[5]; [12],1 n
same,"Musculoskeletal pain, AE (any cause; all grades)",[5]; [12],0 n
same,"Nausea, AE (any cause; all grades)",[5]; [12],1 n
same,"Neutropenia, AE (any cause; all grades)",[5]; [12],1 n
same,"Neutropenia, grade ≥3 adverse event",[5]; [12],1 n
same,"Oropharyngeal pain, AE (any cause; all grades)",[5]; [12],0 n
same,"Peripheral edema, AE (any cause; all grades)",[5]; [12],0 n
same,"Petechiae, AE (any cause; all grades)",[5]; [12],1 n
same,"Pneumonia, AE (any cause; all grades)",[5]; [12],0 n
same,"Pneumonia, grade ≥3 adverse event",[5]; [12],0 n
same,"Pyrexia, AE (any cause; all grades)",[5]; [12],0 n
same,"Rash, AE (any cause; all grades)",[5]; [12],0 n
same,"Stomatitis, AE (any cause; all grades)",[5]; [12],2 n
same,"Stomatitis, grade ≥3 adverse event",[5]; [12],2 n
same,"Thrombocytopenia, grade ≥3 adverse event (grade 4)",[5]; [12],0 n
same,"Vomiting, AE (any cause; all grades)",[5]; [12],1 n
same,ECG assessment,[5]; [13],no clinically significant changes
same,"Vital signs, hematology, or clinical chemistry parameters",[5]; [13],no clinically relevant adverse changes
same,Dose interruptions due to AEs,[5]; [14],Three
same,"Grade ≥3 febrile neutropenia, patients",[5]; [14],59%
same,SAE febrile neutropenia,[5]; [14],36%
same,SAE stomatitis,[5]; [14],9%
same,SAEs considered related to study treatment,[5]; [14],Five
same,"Serious AEs (SAEs), patients",[5]; [14],68%
same,"Steady-state plasma concentrations observed from, after start of infusion","[6]; 7-day continuous iv infusion of barasertib, Day 1, maintained until EOI",24 h
same,Time following EOI at which levels were generally undetectable,"[6]; plasma, LLOQ 0.25 ng/mL",2 h
same,"Css, barasertib","[6]; plasma, barasertib 800 mg + LDAC 400 mg, n=6",46.7 (55.8) ng/mL
same,"Css, barasertib","[6]; plasma, barasertib 1000 mg + LDAC 400 mg, n=13",44.4 (55.5) ng/mL
same,"Css, barasertib","[6]; plasma, barasertib 1200 mg + LDAC 400 mg, n=3",64.9 (67.4) ng/mL
same,Overall response rate (International Working Group criteria; by investigator opinion),"[7]; all patients, barasertib + LDAC, n=10/22",45%
same,"Complete response with incomplete recovery of neutrophils and/or platelets, patients",[7]; [9],9%
same,"Partial response, patients",[7]; [9],9%
same,Best clinical response: CR (complete response),[7]; [10],2 n
same,Best clinical response: CRi (complete response with incomplete recovery of neutrophils and/or platelets),[7]; [10],0 n
same,Best clinical response: ORR (overall response rate),[7]; [10],3 (50) n (%)
same,Best clinical response: PR (partial response),[7]; [10],1 n
same,Best clinical response: CR (complete response),[7]; [11],3 n
same,Best clinical response: CRi (complete response with incomplete recovery of neutrophils and/or platelets),[7]; [11],2 n
same,Best clinical response: ORR (overall response rate),[7]; [11],6 (46) n (%)
same,Best clinical response: PR (partial response),[7]; [11],1 n
same,Response rate,"[7]; barasertib 1000 mg cohort + LDAC, 6/13 patients",46%
same,Best clinical response: CR (complete response),[7]; [12],1 n
same,Best clinical response: CRi (complete response with incomplete recovery of neutrophils and/or platelets),[7]; [12],0 n
same,Best clinical response: ORR (overall response rate),[7]; [12],1 (33) n (%)
same,Best clinical response: PR (partial response),[7]; [12],0 n
same,"Complete response, patients with adverse cytogenetic risk","[7]; barasertib + LDAC, n=7",14%
same,"Complete responses (CR or CRi), patients with intermediate risk cytogenetics","[7]; barasertib + LDAC, n=9",44%
